According to ChEMBL document CHEMBL5120866, “Design and Synthesis of Novel Celastrol Derivatives as Potential Anticancer Agents against Gastric Cancer Cells” (J Nat Prod, 2022):
Active and inactive are the calls of the source. No cut-off for these calls is given here.

What was measured:
BGC-823 [1] = test: Induction of cell cycle arrest in human BGC-823 cells assessed as accumulation of cells at G0/G1 phase at 0.3 uM incubated for 24 hrs by PI staining based flow cytometry method (reference value: 50.66%); type: functional
BGC-823 [2] = test: Induction of ROS generation in human BGC-823 cells assessed as increase in intracellular ROS level incubated for 24 hrs by DCFH-DA staining based fluorescence microscopic analysis; type: functional, cell-based; settings: dose 0.3-0.6 µM, DDE = dose-dependent effect
BGC-823 [3] = test: Downregulation of Cdc2 protein expression in human BGC-823 cells at 0.15 to 0.6 uM incubated for 24 hrs by Western blot analysis; type: functional, cell-based; settings: dose 0.15-0.6 µM
[4] = Toxicity in athymic BALB/c nude mouse assessed as effect on liver at 1.5 mg/kg, ip measured after 21 days by H and E staining based histopathological analysis; type: organism-based; settings: in vivo, 504 h, time 21 day
BGC-823 [5] = test: Induction of cell cycle arrest in human BGC-823 cells assessed as accumulation of cells at S phase at 0.6 uM incubated for 24 hrs by PI staining based flow cytometry method (reference value: 26.01%); type: functional
BGC-823 [6] = test: Induction of mitochondrial dysfunction in human BGC-823 cells assessed as […] by measuring increase in green fluorescence at 0.15 to 0.6 uM incubated for 24 hrs by inverted fluorescent microscopic analysis; type: functional, cell-based; settings: dose 0.15-0.6 µM
BGC-823 [7] = test: Downregulation of cyclin B1 protein expression in human BGC-823 cells at 0.15 to 0.6 uM incubated for 24 hrs by Western blot analysis; type: functional, cell-based; settings: dose 0.15-0.6 µM
BGC-823 [8] = test: Induction of apoptosis in human BGC-823 cells assessed as late apoptotic cells at 0.15 uM incubated for 24 hrs by annexin-V-FITC and PI staining based flow cytometry analysis (reference value: 0.6%); type: functional
BGC-823 [9] = test: Induction of apoptosis in human BGC-823 cells assessed as necrotic cells at 0.3 uM incubated for 24 hrs by annexin-V-FITC and PI staining based flow cytometry analysis (reference value: 0.6%); type: functional
[10] = Toxicity in athymic BALB/c nude mouse assessed as effect on heart at 1.5 mg/kg, ip measured after 21 days by H and E staining based histopathological analysis; type: organism-based; settings: in vivo, 504 h, time 21 day
BGC-823 [11] = test: Induction of apoptosis in human BGC-823 cells assessed as early apoptotic cells at 0.6 uM incubated for 24 hrs by annexin-V-FITC and PI staining based flow cytometry analysis (reference value: 2.4%); type: functional
BGC-823 [12] = test: Induction of apoptosis in human BGC-823 cells assessed as increase in number of apoptotic cells at 0.15 to 0.6 uM incubated for 24 hrs by Hoechst 33342 staining based flourescence microscopy method; type: functional, cell-based; settings: dose 0.15-0.6 µM
HCT-116 = test: Antiproliferative activity against human HCT-116 cells assessed as cell growth inhibition incubated for 48 hrs by MTT assay; type: functional, cell-based; settings: HCT-116, 48 h
BGC-823 [13] = test: Antiproliferative activity against human BGC-823 cells assessed as cell growth inhibition incubated for 48 hrs by MTT assay; type: functional, cell-based; settings: BGC-823, 48 h
BGC-823 [14] = test: Induction of cell cycle arrest in human BGC-823 cells assessed as accumulation of cells at G0/G1 phase at 0.15 uM incubated for 24 hrs by PI staining based flow cytometry method (reference value: 50.66%); type: functional
BGC-823 [15] = test: Induction of apoptosis in human BGC-823 cells assessed as viable cells at 0.6 uM incubated for 24 hrs by annexin-V-FITC and PI staining based flow cytometry analysis (reference value: 96.3%); type: functional; settings: read-out: Activity
BGC-823 [16] = test: Induction of apoptosis in human BGC-823 cells assessed as late apoptotic cells at 0.6 uM incubated for 24 hrs by annexin-V-FITC and PI staining based flow cytometry analysis (reference value: 0.6%); type: functional
BGC-823 [17] = test: Antitumor activity against human BGC-823 cells xenografted in athymic BALB/c nude mouse assessed as tumor growth inhibition rate at 1.5 mg/kg, ip measured every 2 days for 21 days by curson caliper method relative to control; type: functional; settings: BGC-823, 504 h, time 21 day, read-out: TGI
MCF7 = test: Antiproliferative activity against human MCF7 cells assessed as cell growth inhibition incubated for 48 hrs by MTT assay; type: functional, cell-based; settings: MCF7, 48 h
BGC-823 [18] = test: Induction of mitochondrial dysfunction in human BGC-823 cells assessed as […] by measuring reduction in red fluorescence at 0.15 to 0.6 uM incubated for 24 hrs by inverted fluorescent microscopic analysis; type: functional, cell-based; settings: dose 0.15-0.6 µM
BGC-823 [19] = test: Induction of apoptosis in human BGC-823 cells assessed as viable cells at 0.3 uM incubated for 24 hrs by annexin-V-FITC and PI staining based flow cytometry analysis (reference value: 96.3%); type: functional; settings: read-out: Activity
BGC-823 [20] = test: Induction of cell cycle arrest in human BGC-823 cells assessed as accumulation of cells at G2/M phase at 0.3 uM incubated for 24 hrs by PI staining based flow cytometry method (reference value: 22.86%); type: functional
BGC-823 [21] = test: Antitumor activity against human BGC-823 cells xenografted in athymic BALB/c nude mouse assessed as increase in cell necrosis at 1.5 mg/kg, ip measured after 21 days by H and E staining based analysis; type: functional, organism-based; settings: time 21.0 day
BGC-823 [22] = test: Induction of cell cycle arrest in human BGC-823 cells assessed as accumulation of cells at S phase at 0.15 uM incubated for 24 hrs by PI staining based flow cytometry method (reference value: 26.01%); type: functional
BGC-823 [23] = test: Induction of apoptosis in human BGC-823 cells assessed as necrotic cells at 0.6 uM incubated for 24 hrs by annexin-V-FITC and PI staining based flow cytometry analysis (reference value: 0.6%); type: functional
BGC-823 [24] = test: Induction of cell cycle arrest in human BGC-823 cells assessed as accumulation of cells at G2/M phase at 0.15 uM incubated for 24 hrs by PI staining based flow cytometry method (reference value: 22.86%); type: functional
BGC-823 [25] = test: Induction of apoptosis in human BGC-823 cells assessed as viable cells at 0.15 uM incubated for 24 hrs by annexin-V-FITC and PI staining based flow cytometry analysis (reference value: 96.3%); type: functional; settings: read-out: Activity
[26] = Toxicity in athymic BALB/c nude mouse assessed as effect on kidney at 1.5 mg/kg, ip measured after 21 days by H and E staining based histopathological analysis; type: organism-based; settings: in vivo, 504 h, time 21 day
HeLa = test: Antiproliferative activity against human HeLa cells assessed as cell growth inhibition incubated for 48 hrs by MTT assay; type: functional, cell-based
BGC-823 [27] = test: Induction of cell cycle arrest in human BGC-823 cells assessed as accumulation of cells at G2/M phase at 0.6 uM incubated for 24 hrs by PI staining based flow cytometry method (reference value: 22.86%); type: functional
BGC-823 [28] = test: Antitumor activity against human BGC-823 cells xenografted in athymic BALB/c nude mouse assessed as reduction in mitosis at 1.5 mg/kg, ip measured after 21 days by H and E staining based analysis; type: functional, organism-based; settings: time 21.0 day
BGC-823 [29] = test: Antiproliferative activity against human BGC-823 cells assessed as cell growth inhibition at 0.5 uM incubated for 48 hrs by MTT assay relative to control; type: functional
BGC-823 [30] = test: Induction of apoptosis in human BGC-823 cells assessed as early apoptotic cells at 0.15 uM incubated for 24 hrs by annexin-V-FITC and PI staining based flow cytometry analysis (reference value: 2.4%); type: functional

Structure (SMILES): CCOC(=O)c1cnn(CCCOC(=O)[C@]2(C)CC[C@]3(C)CC[C@]4(C)C5=CC=C6C(=CC(=O)C(O)=C6C)[C@]5(C)CC[C@@]4(C)[C@@H]3C2)c1
- Activity (BGC-823 [1]): 46.1%
- Activity (BGC-823 [2]): Dde
- Activity (BGC-823 [3]): Active
- Activity [4]: Non-Toxic
- Activity (BGC-823 [5]): 24.75%
- Activity (BGC-823 [6]): Active
- Activity (BGC-823 [7]): Active
- Activity (BGC-823 [8]): 0.5%
- Activity (BGC-823 [9]): 0.4%
- Activity [10]: Non-Toxic
- Activity (BGC-823 [11]): 26%
- Activity (BGC-823 [12]): Active
- IC50 (HCT-116): 410 nM
- IC50 (BGC-823 [13]): 210 nM
- Activity (BGC-823 [14]): 48.17%
- viability at 0.6 µM (BGC-823 [15]): 50.9%
- Activity (BGC-823 [16]): 21.7%
- inhibition in vivo at 1.5 mg/kg (BGC-823 [17]): 89.8%
- IC50 (MCF7): 390 nM
- Activity (BGC-823 [18]): Active
- viability at 0.3 µM (BGC-823 [19]): 78.2%
- Activity (BGC-823 [20]): 27.71%
- Activity (BGC-823 [21]): Active
- Activity (BGC-823 [22]): 26.07%
- Activity (BGC-823 [23]): 1.5%
- Activity (BGC-823 [24]): 23.89%
- viability at 0.15 µM (BGC-823 [25]): 94.9%
- Activity [26]: Non-Toxic
- IC50 (HeLa): 480 nM
- Activity (BGC-823 [27]): 34.73%
- Activity (BGC-823 [28]): Active
- inhibition at 0.5 µM (BGC-823 [29]): > 50%
- Activity (BGC-823 [30]): 4.4%
